Reference: the METLIN SMRT retention time set (Domingo-Almenara et al. 2019)

Assay: gradient 5% acetonitrile 3 min, to 50% in 2 min, to 85% in 15 min, held 3 min, 100 µL/min
Settings: column: Zorbax Extend-C18 2.1 x 50 mm; eluents: water / acetonitrile, 0.1% formic acid
In short: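 Over 3 months, pure standards in mixtures of ~100 molecules were run by HPLC coupled to a quadrupole time-of-flight mass spectrometer in positive and negative ionization mode. The column was a Zorbax Extend-C18 (2.1 × 50 mm, 1.8 μm) at 100 μL/min, eluted with water and acetonitrile each holding 0.1% formic acid, with 40 μL dead and 900 μL dwell volumes. Retention time was determined from adduct peaks chosen by software and checked manually.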

Structure (SMILES)	RP-LC retention time [s]
CCOC(=O)C1=C(C)NC2=C(C(=O)C(C(=O)OC)C(C)C2)C1c1cccc(Cl)c1 (stereo unspecified)	965
O=C(Cn1cnc2c(nc3n2CCCCC3)c1=O)N1CCN(c2ccc(Cl)cc2)CC1	750
COc1ccc(-c2csc(NC(=O)c3ccc(Br)s3)n2)cc1OC	990
CCC(C)NC(=O)c1nc2cc(C)c(C)cc2n(C)c1=O (stereo unspecified)	798
COc1ccc(Cn2cccc(S(=O)(=O)N3CCCC3)c2=O)cc1F	843
Cc1cc(C)c(-c2noc(C)n2)c(NC(=O)c2cccc(Br)c2)n1	820
O=C(c1ccc(F)c(F)c1)N1CCN(c2cc(-c3cccs3)[nH]n2)CC1	758
O=C(NCC1(CO)CC1)c1c(F)cccc1Cl	609
COCCNC(=O)CC1CCN(C(=O)c2[nH]c(C)c(C)c2C)CC1	657
Cc1cccc(-c2noc(Cn3c(=O)n(-c4ccc(F)cc4)c(=O)c4sccc43)n2)c1	1030
O=C1COc2ccccc2N1Cc1nc(-c2ccc(Cl)c(F)c2)no1	1120
CCc1cc(=O)n(CC(=O)Nc2ccc(F)cc2F)c(N2CCOCC2)n1	743
COc1cccc(C(=O)N2CCN=C2N2CCCC2)c1OC	614
O=C(COc1ccc(F)c(F)c1)N1CCN(c2ncccc2-c2nnc(C3CC3)o2)CC1	822
NC(=O)CSc1nc(-c2ccccc2)c(NC(=O)c2cc3ccccc3o2)s1	797
Cc1cccnc1NC(=O)C1CCN(S(=O)(=O)c2cc(C(=O)N3CCOCC3)cs2)CC1	606
Cc1ccc(C)c(CNS(=O)(=O)c2cc(-c3nc(C(C)(C)C)cs3)cs2)c1	1360
CC1(C)CC(=O)c2cn(-c3ccc(Cl)cc3)c(=O)c(C(=O)NCCN3CCOCC3)c2C1	592

Results, then the compound that gave them:

RP-LC retention time [s]	Structure (SMILES)
824	CC(C)n1cnc(S(=O)(=O)N2CCC(C(=O)Nc3ccc(Cl)cc3)CC2)c1
911	O=C(NCCCc1ccccc1)c1nnc(-c2ccc(S(=O)(=O)N3CCOCC3)cc2)o1
833	COc1cccc(NC(=O)N2CCc3c(c(-c4nnc(-c5ccc(F)cc5)o4)nn3C)C2)c1
1180	CCOC(=O)C(=O)Nc1ccc(-c2nc(-c3cc(C)ccc3C)co2)cc1
604	O=C(Nc1ccc(Cl)cc1)N1CCN(CCn2cnc3cccnc32)CC1
760	O=C(NCc1ccccc1)C1CCN(C(=O)c2ncn3c2COC(c2ccccc2)C3)CC1 (stereo unspecified)
752	O=C(NCc1ccc2c(c1)OCO2)C(=O)NCC1OCCN1S(=O)(=O)c1ccccc1 (stereo unspecified)
735	CCOc1ccc(C(=O)NC(C(=O)Nc2nc3ccccc3[nH]2)C(C)C)cc1OCC (stereo unspecified)
730	COCCN1C(=O)CC[C@]2(C(=O)NCc3ccccc3Cl)CCCC[C@@H]12
856	Cc1nnc(-c2cn(CC(=O)Nc3ccc(Cl)cc3)c3ccccc23)o1
771	O=C(Cc1cccc(F)c1)NC(c1ccccc1)c1nnc(N2CCCC2)o1 (stereo unspecified)
591	CCN(Cc1ccncc1)C1CN(C(=O)NCc2ccc(C)cc2)C1
615	O=C(NCCc1ccccc1)N1CCN(c2cnn3cnnc3c2)CC1
899	CC(C)NC(=O)c1ccc(OCC2CCCN(C(=O)c3cccc(Cl)c3)C2)cc1 (stereo unspecified)
680	CCc1ccc(NC(=O)CSc2ccc(N3CCC(C(=O)NC(C)C)CC3)nn2)cc1
1240	CCn1nccc1-c1cccc(-c2noc(C3(c4ccc(OC)cc4)CC3)n2)c1
580	CC(=O)N1CCC2(CC1)OC(=O)C(C)=C2C(=O)NCCCN(Cc1ccccc1)C(C)C
899	COc1ccc(C(=O)Nc2nnc(SCc3nnc(-c4ccccc4)o3)s2)cc1
